The values below come from patent US20100113510A1 (priority 2006, published 2010).

This assay addresses T1, human muscarinic acetylcholine M3 receptor (M3-ACh) (Homo sapiens, UniProt P20309).
T1 construct: expressed in transfected cells; host or cells: CHO-K1 (Chinese Hamster Ovary) cell membranes
Nature of the assay: biochemical. It is filed as binding.

The mark [1] stands for this setting: pIC50 (M3 Binding IC50 classes).
Where [2] appears, read: read-out: pIC50 (M3 Binding IC50 classes) (converted).

Like-named read-outs stand apart in the source and are kept apart here.

T1 sequence (P20309 whole entry): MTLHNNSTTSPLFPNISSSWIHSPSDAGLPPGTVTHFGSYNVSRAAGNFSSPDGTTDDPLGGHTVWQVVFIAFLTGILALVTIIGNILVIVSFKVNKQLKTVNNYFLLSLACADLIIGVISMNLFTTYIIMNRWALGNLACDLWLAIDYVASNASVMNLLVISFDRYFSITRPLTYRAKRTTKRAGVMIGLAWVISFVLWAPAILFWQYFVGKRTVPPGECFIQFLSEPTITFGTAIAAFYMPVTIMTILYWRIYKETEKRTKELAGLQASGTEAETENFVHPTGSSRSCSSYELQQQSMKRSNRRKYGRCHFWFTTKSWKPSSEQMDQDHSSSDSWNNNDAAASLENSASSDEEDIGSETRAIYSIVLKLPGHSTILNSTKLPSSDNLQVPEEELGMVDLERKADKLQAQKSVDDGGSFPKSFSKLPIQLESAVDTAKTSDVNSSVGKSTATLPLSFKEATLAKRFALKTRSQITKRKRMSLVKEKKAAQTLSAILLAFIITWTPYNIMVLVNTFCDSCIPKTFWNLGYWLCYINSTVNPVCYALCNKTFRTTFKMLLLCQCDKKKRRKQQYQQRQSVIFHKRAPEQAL

`CC1(C)CN(C(C)(C(=O)O[C@H]2C[N+]3(CCCOc4ccccc4)CCC2CC3)c2ccc(Cl)cc2)C1` (single isomer, unassigned) [Example 46] had an IC50 under setting [1] of more than 10 nM.
`CC1(C)CN(C(C)(C(=O)O[C@H]2C[N+]3(CCCOc4ccccc4)CCC2CC3)c2ccc(Cl)cc2)C1` (single isomer, unassigned) [Example 47] had an IC50 under setting [1] of less than 2 nM.
The same measure, in the same setting: the result for `CC1(C)CN(C(C)(C(=O)O[C@H]2C[N+]3(CCCOc4ccccc4)CCC2CC3)c2ccccc2)C1` (single isomer, unassigned) [Example 48] reads 2 to 10 nM; that for `CC(C(=O)O[C@H]1C[N+]2(CCCOc3ccccc3)CCC1CC2)(c1cccs1)N1CCSCC1` (single isomer, unassigned) [Example 49], less than 2 nM.
On the same count and under the same terms, the figure for `CC(C(=O)O[C@H]1C[N+]2(CCCc3ccccc3)CCC1CC2)(c1cccs1)N1CCSCC1` (single isomer, unassigned) [Example 50] is less than 2 nM.
`CC(C(=O)O[C@H]1C[N+]2(CCc3cccc(F)c3)CCC1CC2)(c1cccs1)N1CCSCC1` (single isomer, unassigned) [Example 51] came in with an IC50 under setting [1] of less than 2 nM.
For `CC(C(=O)O[C@H]1C[N+]2(CCc3cccc(Cl)c3)CCC1CC2)(c1cccs1)N1CCSCC1` (single isomer, unassigned) [Example 52], under setting [1], the IC50 was less than 2 nM.
Regarding `CC(C(=O)O[C@H]1C[N+]2(CC(=O)Nc3cccc(F)c3)CCC1CC2)(c1cccs1)N1CCSCC1` (single isomer, unassigned) [Example 53], under setting [1], the IC50 is less than 2 nM.
`CC(C(=O)O[C@H]1C[N+]2(CC(=O)Nc3cnccn3)CCC1CC2)(c1cccs1)N1CCSCC1` (single isomer, unassigned) [Example 54] came in with an IC50 under setting [1] of less than 2 nM.
As for `CC(C(=O)O[C@H]1C[N+]2(Cc3cc(-c4ccccc4)no3)CCC1CC2)(c1cccs1)N1CCSCC1` (single isomer, unassigned) [Example 55], the IC50 under setting [1] was in the range of 2 to 10 nM.
Compound `CC(C(=O)O[C@H]1C[N+]2(Cc3nc(-c4ccccc4)no3)CCC1CC2)(c1cccs1)N1CCSCC1` (single isomer, unassigned) [Example 56] registered an IC50 under setting [1] of less than 2 nM.
Under setting [1], `Cc1ccc(OCC[N+]23CCC(CC2)[C@@H](OC(=O)C(C)(c2cccs2)N2CCCCC2)C3)c(C)n1` (single isomer, unassigned) [Example 66] came in with an IC50 of 2 to 10 nM.
Under setting [1], `CC(C(=O)O[C@H]1C[N+]2(CC(=O)c3cccc(F)c3)CCC1CC2)(c1cccs1)N1CCCCC1` (single isomer, unassigned) [Example 67] displayed an IC50 of less than 2 nM.
`CC(C(=O)O[C@H]1C[N+]2(CC(=O)Nc3ccc(Cl)nn3)CCC1CC2)(c1cccs1)N1CCCCC1` (single isomer, unassigned) [Example 72] registered an IC50 under setting [1] of less than 2 nM.
With `CC(C(=O)O[C@H]1C[N+]2(Cc3nc4ccccc4s3)CCC1CC2)(c1cccs1)N1CCCCC1` (single isomer, unassigned) [Example 75], the IC50 under setting [1] was less than 2 nM.
Regarding `Cc1cnc(NC(=O)C[N+]23CCC(CC2)[C@@H](OC(=O)C(C)(c2cccs2)N2CCCCC2)C3)cn1` (single isomer, unassigned) [Example 76], under setting [1], the IC50 was less than 2 nM.
On the same count and under the same terms, the figure for `CC(C(=O)O[C@H]1C[N+]2(CC(=O)Nc3noc4ccccc34)CCC1CC2)(c1cccs1)N1CCCCC1` (single isomer, unassigned) [Example 77] is less than 2 nM; for `CC(C(=O)O[C@H]1C[N+]2(CCc3cccc(Cl)c3)CCC1CC2)(c1ccccc1)N1CCOCC1` (single isomer, unassigned) [Example 79] it is less than 2 nM.
Still for that read-out and setting: the figure for `CC(C(=O)O[C@H]1C[N+]2(CCc3cccc(Cl)c3)CCC1CC2)(c1ccccc1)N1CCOCC1` (single isomer, unassigned) [Example 80] is 2 to 10 nM; for `Cc1cc(OCCC[N+]23CCC(CC2)[C@@H](OC(=O)C(C)(c2cccs2)N2CCCCC2)C3)cc(C)n1` (single isomer, unassigned) [Example 81] it is 2 to 10 nM; for `CC(C(=O)O[C@H]1C[N+]2(CCc3cccc(Cl)c3)CCC1CC2)(c1ccccc1)N1CCCCCC1` (single isomer, unassigned) [Example 86] it is less than 2 nM.
With `CC(C(=O)O[C@H]1C[N+]2(CCc3cccc(Cl)c3)CCC1CC2)(c1ccccc1)N1CCCCCC1` (single isomer, unassigned) [Example 87], the IC50 under setting [2] was less than 2 nM.
`CC(C(=O)O[C@H]1C[N+]2(CC(=O)Nc3cccc(F)c3)CCC1CC2)(c1ccccc1)N1CCCCCC1` (single isomer, unassigned) [Example 88] displayed an IC50 under setting [1] of less than 2 nM.
The same measure, in the same setting: the figure for `CC(C(=O)O[C@H]1C[N+]2(CC(=O)Nc3ccccc3)CCC1CC2)(c1ccccc1)N1CCCCCC1` (single isomer, unassigned) [Example 89] is less than 2 nM.
On to `CC(C(=O)O[C@H]1C[N+]2(CC(=O)Nc3ccon3)CCC1CC2)(c1ccccc1)N1CCCCCC1` (single isomer, unassigned) [Example 90], for which the IC50 (pIC50) is 0.631 nM and the IC50 under setting [1] was less than 2 nM.
For `Cc1cnc(NC(=O)C[N+]23CCC(CC2)[C@@H](OC(=O)C(C)(c2ccccc2)N2CCCCCC2)C3)cn1` (single isomer, unassigned) [Example 91], the IC50 under setting [1] was less than 2 nM.
Consider `CC(C(=O)O[C@H]1C[N+]2(CCc3cccc(F)c3)CCC1CC2)(c1ccccc1)N1CCCCCC1` (single isomer, unassigned) [Example 92], for which the 50% inhibitory concentration (IC50) under setting [1] was less than 2 nM.
In the case of `CC(C(=O)O[C@H]1C[N+]2(CCc3ccccc3)CCC1CC2)(c1ccccc1)N1CCCCCC1` (single isomer, unassigned) [Example 93], the IC50 under setting [1] is less than 2 nM.
Consider `CC(C(=O)O[C@H]1C[N+]2(CCCc3ccccc3)CCC1CC2)(c1ccccc1)N1CCCCCC1` (single isomer, unassigned) [Example 94], for which the IC50 under setting [1] is less than 2 nM.
Turning to `CC(C(=O)O[C@H]1C[N+]2(CCCc3ccccc3)CCC1CC2)(c1ccccc1)N1CCCCCC1` (single isomer, unassigned) [Example 95], the IC50 under setting [2] is less than 2 nM.
`CC(C(=O)O[C@H]1C[N+]2(CCCc3cccnc3)CCC1CC2)(c1ccccc1)N1CCCCCC1` (single isomer, unassigned) [Example 96] came in with an IC50 under setting [1] of less than 2 nM.
Still for that read-out and setting: the figure for `CC(C(=O)O[C@H]1C[N+]2(CCCOc3ccccc3)CCC1CC2)(c1ccccc1)N1CCCCCC1` (single isomer, unassigned) [Example 97] is less than 2 nM; for `CC(C(=O)O[C@H]1C[N+]2(CCc3cccc(Cl)c3)CCC1CC2)(c1ccccc1)N1CCSCC1` (single isomer, unassigned) [Example 98] it is less than 2 nM.
Consider `CC(C(=O)O[C@H]1C[N+]2(CCc3cccc(Cl)c3)CCC1CC2)(c1ccccc1)N1CCSCC1` (single isomer, unassigned) [Example 99], for which the IC50 under setting [1] lay in the range of 2 to 10 nM.
The same measure, in the same setting: the figure for `CC(C(=O)O[C@H]1C[N+]2(CC(=O)Nc3cccc(F)c3)CCC1CC2)(c1ccccc1)N1CCSCC1` (single isomer, unassigned) [Example 100] is less than 2 nM; for `CC(C(=O)O[C@H]1C[N+]2(CC(=O)Nc3cccnn3)CCC1CC2)(c1ccccc1)N1CCSCC1` (single isomer, unassigned) [Example 101] it is less than 2 nM; for `CC(C(=O)O[C@H]1C[N+]2(CC(=O)Nc3ccon3)CCC1CC2)(c1ccccc1)N1CCSCC1` (single isomer, unassigned) [Example 102] it is less than 2 nM.
On the same count and under the same terms, the result for `CC(C(=O)O[C@H]1C[N+]2(CCc3ccccc3)CCC1CC2)(c1ccccc1)N1CCSCC1` (single isomer, unassigned) [Example 103] reads less than 2 nM; that for `CC(C(=O)O[C@H]1C[N+]2(CCCc3ccccc3)CCC1CC2)(c1ccccc1)N1CCSCC1` (single isomer, unassigned) [Example 104], less than 2 nM.
Under setting [1], `CC(C(=O)O[C@H]1C[N+]2(CCCc3ccccc3)CCC1CC2)(c1ccccc1)N1CCSCC1` (single isomer, unassigned) [Example 105] returned a 50% inhibitory concentration (IC50) of 2 to 10 nM.
On the same count and under the same terms, the figure for `CC(C(=O)O[C@H]1C[N+]2(CCCc3cccnc3)CCC1CC2)(c1ccccc1)N1CCSCC1` (single isomer, unassigned) [Example 106] is 2 to 10 nM; for `CC(C(=O)O[C@H]1C[N+]2(CCCOc3ccccc3)CCC1CC2)(c1ccccc1)N1CCSCC1` (single isomer, unassigned) [Example 107] it is less than 2 nM.
Under setting [1], `CC(C(=O)O[C@H]1C[N+]2(CCOCc3ccc(Cl)cc3)CCC1CC2)(c1ccccc1)N1CCSCC1` (single isomer, unassigned) [Example 108] had an IC50 of 2 to 10 nM.
In the case of `CN(C(=O)C[N+]12CCC(CC1)[C@@H](OC(=O)C(C)(c1cccs1)N1CCCCC1)C2)c1cccc(F)c1` (single isomer, unassigned) [Example 109], the IC50 under setting [1] was 2 to 10 nM.
Take `CC(C(=O)O[C@H]1C[N+]2(CC(=O)Nc3ccon3)CCC1CC2)(c1ccccc1)N1CCCCCC1` (single isomer, unassigned) [Example 111]: the IC50 under setting [1] was in the range of 2 to 10 nM.
As to `C[C@@](C(=O)O[C@H]1C[N+]2(CC(=O)c3sccc3Cl)CCC1CC2)(c1ccccc1)N1CCCCC1` [Example 4, (3R)-1-[2-(3-Chloro-2-thienyl)-2-oxoethyl]-3-{[(2S)-2-phenyl-2-piperidin-1-ylpropanoyl]oxy}-1-azoniabicyclo[2.2.2]octane bromide], under setting [1], the IC50 was 2 to 10 nM.
Still for that read-out and setting: the figure for `C[C@@](C(=O)O[C@H]1C[N+]2(CC(=O)c3ccc(F)cc3F)CCC1CC2)(c1ccccc1)N1CCCCC1` [Example 5, (3R)-1-[2-(2,4-Difluorophenyl)-2-oxoethyl]-3-{[(2S)-2-phenyl-2-piperidin-1-ylpropanoyl]oxy}-1-azoniabicyclo[2.2.2]octane chloride] is 2 to 10 nM.
Still for that read-out and setting: the result for `C[C@@](C(=O)O[C@H]1C[N+]2(CC(=O)c3cccc(Cl)c3)CCC1CC2)(c1ccccc1)N1CCCCC1` [Example 6, (3R)-1-[2-(3-Chlorophenyl)-2-oxoethyl]-3-{[(2S)-2-phenyl-2-piperidin-1-ylpropanoyl]oxy}-1-azoniabicyclo[2.2.2]octane bromide] reads less than 2 nM.

As usually defined, the IC50 is the point on the concentration scale where inhibition reaches its midpoint.
